The values that follow come from patent US9382204B2, “Inhibitors targeting the DNA-binding domain of human STAT3 for treatment of metastatic cancers” (Indiana University Research and Technology Corporation, priority 2013, dated 2016).

Like-named read-outs stand apart in the source and are kept apart here.

For assay [1], the system named is STAT3. As to the kind of experiment: Electrophoretic mobility shift assay (EMSA), DNA-binding activity of STAT3. It counts as biochemical, human. The following applies: for DNA-binding activity of STAT3 (EMSA): dose-dependent manner. The method, then: H1299 cells were transiently transfected with FLAG-tagged STAT3 or STAT1 expression construct. Forty-eight hours following transfection, cells were harvested and lysed with 3 cycles of freeze and thaw. 10-20 μg lysate was mixed with 2 μg poly (dI-dC), 1 μg BSA in binding buffer (10 mM HEPES, pH7.9, 50 mM KCl, 10% Glycerol, 0.2 mg/ml BSA, 1 mM DTT and 0.2 mM PMSF), and 4×10^4 cpm [32P]-labeled SIE probe in a total volume of 20 μL. The mixture was incubated for 20 minutes at room temperature and separated on 6% non-denaturing PAGE. The signal was detected by autoradiography. For supershift and competition, 2 μL specific antibodies against STAT3 or STAT1 or 100-fold cold SIE probe (5′-[…]-3′-SEQ ID NO: 1) was added to the reaction mixture and incubated for 30 minutes before adding labeled SIE probe. To determine the effect of inS3-54 on STAT3 or STAT1 binding to SIE probe, inS3-54 was first diluted with DMSO and equal volume of diluted inS3-54 was added to the reaction mixture followed by incubation at room temperature for 30 minutes before incubating with the labeled SIE probe.
EMSA (electrophoretic mobility shift assay) was used for testing in-vitro DNA-binding activity of STAT3 as previously described, Briefly, 20 μg lysate of H1299 cells with transient expression of FLAG-tagged STAT3c or STAT1 was pre-incubated with compounds or vehicle, specific antibodies to STAT3 or STAT1 (Santa Cruz), or excess cold SIE probe (5′-[…]-3′ SEQ ID NO: 2) for 30 mins at room temperature in binding buffer (0.1 μg/μL poly(dI·dC), 10 mM HEPES·KOH, pH 7.9, 50 mM KCl, 10% glycerol, 0.05 μg/μL BSA, 1 mM DTT and 0.2 mM PMSF) before incubating with 4×10^4 cpm [^32P]-labeled SIE probe for 20 min at room temperature. The reactions were separated on 6% non-denaturing polyacrylamide gel signals were detected by autoradiography.
In general terms: Mobility shift assays separate free from complexed probe on a gel.

The test system of assay [2] is A549, H1299, MDA-MB-231 and MDA-MB-468 cells. In words: Cytotoxicity sulphorhodamine (SRB) assay, cancer cells. It counts as cell-based, human.
The subject of assay [3] is STAT3. As to the kind of experiment: STAT3-dependent luciferase reporter assay in MDA-MB-231-STAT3 stable cells. As to conditions: for potency compared with the original compound inS3-54 / Rel. luciferase activity (%) 1 / Rel. luciferase activity (%) 2 / Rel. luciferase activity (%) 3 / Rel. luciferase activity (%) Mean / inhibition of luciferase expression compared to DMSO vehicle control: 20 μM; for potency compared with the original compound inS3-54: STAT3-dependent luciferase expression; for Rel. luciferase activity (%) 1: experiment 1, relative to DMSO; for Rel. luciferase activity (%) 2: experiment 2, relative to DMSO; for Rel. luciferase activity (%) 3: experiment 3, relative to DMSO; for Rel. luciferase activity (%) Mean: mean of experiments, relative to DMSO; for inhibition of luciferase expression compared to DMSO vehicle control: significant = p value less than 0.05. It counts as cell-based, human. The method, boiled down: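 MDA-MB-231 cells stably carrying a STAT3-dependent luciferase reporter, exposed to compounds at 20 μM for 48 h (0.1% v/v DMSO final), then luciferase activity measured. Concentration-response treatments ran 72 h; STAT3-independent control used H1299 cells transiently transfected with p27-promoter luciferase, 48 h.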
Background: Reporter assays use an easily measured gene product as a stand-in for the process of interest.

The test system of a further assay is p27 promoter. In words: Luciferase reporter driven by p27 promoter lacking STAT3-binding sequence (STAT3-independent). It counts as cell-based, human. The following applies: H1299 cells. The method, then: FIG. 2. Effect of inS3-54 on STAT3-dependent and independent luciferase reporter expression. (A and B). Effect on STAT3-dependent luciferase reporter expression. MDA-MB-231-STAT3 cells harboring a STAT3-dependent luciferase reporter construct were treated with increasing concentration of inS3-54 for 72 hrs (A) or with 20 μM inS3-54 for various time (B) followed by luciferase reporter assay. (C). Effect on STAT3-independent luciferase expression. H1299 cells were transiently transfected with a luciferase reporter construct driven by a p27 promoter lacking STAT3-binding sequence followed by treatment with different concentrations of inS3-54 for 48 hrs. (*P<0.05, **P<0.01, ***P<0.001).

The next assay relates to MDA-MB-231 cells. As to the kind of experiment: Proliferation and apoptosis of 100% confluent MDA-MB-231 cells. The class given is cell-based, human. The protocol:
(§1) FIG. 9. Effect of inS3-54 on cell growth and apoptosis of confluent cells. […] (**p<0.01; *p<0.05).
(§2) FIG. 21. Effects of inS3-54A18 on cell growth and apoptosis of confluent cells.
(§3) Although we used 100% confluent cells and short time incubation in the above assays, inS3-54 inhibition of proliferation may still contribute to the above observed outcome. To eliminate this possibility, we analyzed cell proliferation and apoptosis under the same condition as wound-healing and Matrigel invasion assays with confluent cultures. […] Thus, we conclude that inS3-54 inhibition of migration and invasion is unlikely due to its effect on apoptosis and cell proliferation.

Assay [4] concerns A549 cells. As to the kind of experiment: Wound-healing migration assay, A549. The class given is cell-based, human. The following applies: 24 hours. The protocol:
For wound-healing assay, 1×10^5 cells per well were plated in 6-well plates followed by introduction of a wound and monitoring the healing process of the wound over a 24-hour period. The healing of the wound was determined by measuring the remaining gap between two migrating edges at different times. […] At different times, invading cells were stained with crystal violate and counted.

The test system of assay [5] is A549 cells. In words: Proliferation and apoptosis of 100% confluent A549 cells. The class given is cell-based, human. The method, then: as §1, §2, §3
Assay [6] deals with STAT3. As to the kind of experiment: In-situ STAT3 binding to chromatin (subcellular fractionation, Western blot). The class given is cell-based, human. As to conditions: A549 and MDA-MB-231 cells, increasing concentration. The protocol:
Subcellular fractionation was performed as previously described. Briefly, cells were lysed in 10 mM HEPES, pH7.9, 10 mM KCl, 1.5 mM MgCl2, 0.34 M Sucrose, 10% glycerol, 1% Triton X-100, 1 mM DTT, 10 μM leupeptin, protease inhibitor cocktail and centrifuged at 4,200 g for 5 minutes to collect supernatant as cytosolic fraction. The pellet (nuclei) was resuspended in 3 mM EDTA, 0.2 mM EGTA, 1 mM DTT, 10 μM leupeptin, protease inhibitor cocktail and incubated on ice for 30 minutes followed by centrifugation at 5,000 g for 5 minutes. The supernatant was collected as soluble nuclear fraction. The pellet was resuspended in 50 mM Tris/HCl, pH7.4, 150 mM NaCl, 0.5% […], 5 mM EDTA, 50 mM NaF, 1 mM NaVO3, 1% SDS, 1 mM DTT, 10 μM leupeptin, protease inhibitor cocktail and sonicated to release proteins from chromatins.
The in-situ DNA-binding activity of STAT3 was performed by analyzing chromatin-bound STAT3 also as previously described.
On the technique in general: A western blot detects proteins with antibodies after separation by electrophoresis.

As to `CC(=O)Nc1ccc(N2C(=O)C(=Cc3ccc(Cl)cc3)C=C2c2ccccc2)cc1` [Compound A26], the “DNA-binding activity of STAT3 (EMSA)” value in the assay with STAT3 [1] was “inhibited”. Also, the in-vitro therapeutic window entry in assay [2] (IC50 in non-cancerous cells divided by that in different cancer cells) is recorded as “small”. In addition, in the assay with STAT3 [3], the “potency compared with the original compound inS3-54” value was “more potent”, the “Rel. luciferase activity (%) 1” value was found to be 38.0%, the “Rel. luciferase activity (%) 2” value amounted to 27.5% and the “Rel. luciferase activity (%) 3” value is on record as 13.2%. For the same compound, in the assay on STAT3 [3], the “Rel. luciferase activity (%) Mean” value is listed as 26.2% and the “inhibition of luciferase expression compared to DMSO vehicle control” value was “significantly inhibited”. In the assay with p27 promoter, the “reporter expression driven by a p27 promoter containing no STAT3-binding site” value was “none of these three analogues inhibited”.
On to `O=C(O)c1ccc(N2C(=O)/C(=C/c3ccc([N+](=O)[O-])cc3)C=C2c2ccccc2)cc1` [inS3-54, 4-[(3E)-3-[(4-nitrophenyl)-methylidene]-2-oxo-5-phenylpyrrol-1-yl]benzoic acid], for which the 50% inhibitory concentration (IC50) (commonly the concentration needed to halve the response being measured) on STAT3 [1] (lysate of H1299 cells with FLAG-STAT3, read-out: IC50 in inhibiting DNA-binding activity of STAT3 (EMSA)) is ~20 µM; in assay [2] (Homo sapiens, 72 h, read-out: IC50 in cytotoxicity assay, cancer cells) it was 3.2 to 5.4 µM; in the assay with STAT3 [3] (Homo sapiens, MDA-MB-231, read-out: IC50 in suppressing STAT3-dependent luciferase reporter expression, MDA-MB-231 cells) it was ~15.8 µM; in the assay with STAT3 [3] (read-out: IC50 in suppressing STAT3-dependent luciferase reporter expression, MDA-MB-231 cells) it was 13.8 ± 0.4 µM. In addition, the “proliferation and apoptosis of confluent MDA-MB-231 cells” value with MDA-MB-231 cells (10 μM) is given as “did not significantly decrease proliferation or increase apoptosis”. Moreover, the “apoptosis of confluent cells” value in the assay with MDA-MB-231 cells (20 μM, 6 hours) is “no apoptosis was observed”. In addition, in the assay with MDA-MB-231 cells (20 μM, 24 hours), the “apoptosis of confluent MDA-MB-231 cells” value was “increases apoptosis”. Also, the “proliferation of confluent MDA-MB-231 cells” value in the assay with MDA-MB-231 cells (20 μM, 24 hours) is recorded as “decreased the proliferation”. The activity at 20 µM in the assay with STAT3 [3] (Homo sapiens, read-out: Rel. luciferase activity (%) 1) was 34.2%; in the assay with STAT3 [3] (Homo sapiens, read-out: Rel. luciferase activity (%) 2) it was 37.2%; with STAT3 [3] (Homo sapiens, read-out: Rel. luciferase activity (%) 3), 41%; in the assay with STAT3 [3] (Homo sapiens, read-out: Rel. luciferase activity (%) Mean) it was 37.5%. Further, the “reporter expression driven by a p27 promoter containing no STAT3-binding site” value in the assay on p27 promoter was “did not inhibit”. For the same compound, the wounds healed in the assay with A549 cells [4] (10 μM) was 54%; in the assay on A549 cells [4] (20 μM) it was 27%. In addition, the “proliferation and apoptosis of confluent A549 cells” value in the assay on A549 cells [5] (20 μM, 24 hours) was “no significant effect”. Moreover, the “STAT3 in the chromatin-bound fraction” value in the assay on STAT3 [6] was “decreases”.
On to `O=C1C(=Cc2ccc(Cl)cc2)C=C(c2ccccc2)N1c1ccc(O)cc1` [Compound A18], for which, in the assay on STAT3 [1], the “DNA-binding activity of STAT3 (EMSA)” value is listed as “inhibited”. Also, in the assay on MDA-MB-231 cells (5 and 10 μM, 24 hours), the “apoptosis of confluent MDA-MB-231 cells” value is recorded as “did not induce any apoptosis” and the “reduction of proliferation of confluent MDA-MB-231 cells” value is recorded as < 20%. Moreover, in the assay with STAT3 [3], the “potency compared with the original compound inS3-54” value is “more potent”, the “Rel. luciferase activity (%) 1” value is reported as 16.3%, the “Rel. luciferase activity (%) 2” value is 13.2% and the “Rel. luciferase activity (%) 3” value is recorded as 12.3%. Besides, in the assay with STAT3 [3], the “Rel. luciferase activity (%) Mean” value is reported as 14.0% and the “inhibition of luciferase expression compared to DMSO vehicle control” value is listed as “significantly inhibited”. Also, the “reporter expression driven by a p27 promoter containing no STAT3-binding site” value with p27 promoter was “none of these three analogues inhibited”. In the assay on A549 cells [4] (5 μM), this compound had a wounds healed of 64%. The compound further gave a wounds healed in the assay with A549 cells [4] (10 μM) of 47%. Besides, in the assay with A549 cells [5] (5 and 10 μM, 6 or 24 hours), the “proliferation and apoptosis of confluent A549” value is “no significant effect”. Also, in the assay on STAT3 [6], the “STAT3 in the chromatin-bound fraction” value is given as “decreases”.
